Data published in patent US12084481B2 (priority 2016, dated 2024).

Target: Hv1 channels (Homo sapiens, UniProt Q96D96)
Settings: cited from earlier work

Chain of Hv1 channels (Q96D96 whole entry): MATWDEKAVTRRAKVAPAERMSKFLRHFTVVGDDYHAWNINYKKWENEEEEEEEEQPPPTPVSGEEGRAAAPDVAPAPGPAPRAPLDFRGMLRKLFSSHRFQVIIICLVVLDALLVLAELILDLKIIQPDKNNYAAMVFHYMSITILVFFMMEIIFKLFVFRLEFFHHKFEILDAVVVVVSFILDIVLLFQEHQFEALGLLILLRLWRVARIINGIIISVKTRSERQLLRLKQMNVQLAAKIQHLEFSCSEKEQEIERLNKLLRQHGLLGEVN

Compound | effect on Hv1 proton currents | concentrations inhibiting Hv1
CCCCC/C=C\C/C=C\C/C=C\C/C=C\CCCC(=O)O [arachidonic acid] | enhance Hv1 proton currents | 
CCCCCCCC/C=C\CCCCCCCC(=O)O [oleic acid] | enhance Hv1 proton currents | 
ECRYLFGGCKTTSDCCKHLGCKFRDKYCAWDFTFS [hanatoxin] |  | low micromolar

Test system: human blood cells
Format: cell-based
Settings: 100 μM

Compound | production of ROS
[Zn] [zinc] | blocks ROS production to background (control) levels

Target: hHv1 (Homo sapiens, UniProt Q96D96)
Sequence (Q96D96 whole entry): as the sequence (Q96D96 whole entry) above
Format: cell-based
Settings: not given

Compound | Activator/Inhibitor
GCKGFGDSCADSDDCCETFHCKWVFFTSKFMCRRVWGKD [A6] | ACTIVATOR
GCLGDKCADSDDCCETFHCKWVFFTSKFMCRRVWGKD [B1] | ACTIVATOR

Test system: H^+ currents
Settings: cited from earlier work

Compound | effect on H^+ currents
Nc1ccncc1 [4-aminopyridine] | block H^+ currents
COc1ccc(CCN(C)CCCC(C#N)(c2cc(OC)c(OC)c(OC)c2)C(C)C)cc1OC (stereo not shown) [D600] | block H^+ currents
O=C(O[C@@H]1Cc2c(O)cc(O)cc2O[C@@H]1c1cc(O)c(O)c(O)c1)c1cc(O)c(O)c(O)c1 [EGCG] | block H^+ currents
N=C(N)NC(=O)c1nc(Cl)c(N)nc1N [amiloride] | block H^+ currents
CN(C)CCC=C1c2ccccc2CCc2ccccc21 [amitryptiline] | block H^+ currents
CNCCCN1c2ccccc2CCc2ccccc21 [desipramine] | block H^+ currents
COc1ccc2c(c1)[C@]13CCCC[C@@H]1[C@H](C2)N(C)CC3 [dextromethorphan] | block H^+ currents
CNCCC(Oc1ccc(C(F)(F)F)cc1)c1ccccc1 (stereo not shown) [fluoxetine] | block H^+ currents
CN(C)CCCN1c2ccccc2CCc2ccccc21 [imipramine] | block H^+ currents
COc1ccc(CCN(C)CCCC(C#N)(c2ccc(OC)c(OC)c2)C(C)C)cc1OC (stereo not shown) [verapamil] | block H^+ currents
